The results in this text go back to PubChem BioAssay (NCI).

Test systems include HCT-116 colon; UACC-257 melanoma; NCI-H522 lung; MDA-MB-231 breast; MOLT-4 leukemia; CCRF-CEM leukemia; SN12C renal; RXF 393 renal; KM12 colon; HOP-62 NSCLC.
What all share (assay): NCI anticancer screen, dose series, 48 h

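Growth conditions: 96-well plates. Treatment: test compound, 48 hours, 5 concentrations. Analysis: linear interpolation between bracketing concentrations; unreached endpoints set to highest concentration. GI50: concentration for 50% inhibition of growth. TGI marks complete inhibition of growth.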

Consider `Clc1ccc2c(NCCNc3nc(N4CCOCC4)nc4ccccc34)ccnc2c1`, for which the GI50 is 1.66 µM in the assay with HCT-116 colon; 2.07 µM in the assay on UACC-257 melanoma; 2.03 µM in the assay with NCI-H522 lung; 1.56 µM in the assay on MDA-MB-231 breast; 3.33 µM with MOLT-4 leukemia; 1.67 µM in the assay on CCRF-CEM leukemia. Further, the GI50 with SN12C renal was 2.75 µM; in the assay on RXF 393 renal, 1.61 µM; in the assay on KM12 colon, 2.66 µM; in the assay with HOP-62 NSCLC it was 2.25 µM. Moreover, the TGI turned out to be 3.3 µM with HCT-116 colon; 4.33 µM with UACC-257 melanoma; 3.8 µM with NCI-H522 lung; 3.63 µM in the assay on MDA-MB-231 breast; 14.1 µM with MOLT-4 leukemia; 11.7 µM with CCRF-CEM leukemia. In addition, the TGI came out at 7.69 µM with SN12C renal, 3.63 µM in the assay with RXF 393 renal, 8.16 µM in the assay with KM12 colon and 5.98 µM in the assay with HOP-62 NSCLC.
For the molecule `COc1cc(-c2nc(-c3ccccc3)c(-c3ccccc3)[nH]2)cc(OC)c1O`, the GI50 is 14.4 µM with HCT-116 colon; 21.7 µM with UACC-257 melanoma; 17.6 µM with NCI-H522 lung; 16.7 µM in the assay with MDA-MB-231 breast; 17.1 µM with MOLT-4 leukemia; 23.4 µM with CCRF-CEM leukemia. Besides, the GI50 was 17.6 µM in the assay on SN12C renal, 14.7 µM with RXF 393 renal, 15.1 µM with KM12 colon and 21.9 µM in the assay with HOP-62 NSCLC. Moreover, the TGI came to 27.7 µM with HCT-116 colon; 44.8 µM in the assay with UACC-257 melanoma; 33.8 µM in the assay with NCI-H522 lung; 34.2 µM with MDA-MB-231 breast; 64.9 µM in the assay on MOLT-4 leukemia; 70.4 µM with CCRF-CEM leukemia. Further, the TGI was found to be 37.5 µM with SN12C renal, 31.2 µM in the assay on RXF 393 renal, 30.4 µM in the assay with KM12 colon and 47.8 µM in the assay on HOP-62 NSCLC.
Regarding `COc1ccc2nc3ccccc3c(NCCNCCO)c2c1`, the GI50 was 0.352 µM in the assay with HCT-116 colon; 0.655 µM in the assay on UACC-257 melanoma; 0.38 µM with NCI-H522 lung; 0.932 µM in the assay with MDA-MB-231 breast; 0.393 µM in the assay on MOLT-4 leukemia; 0.597 µM in the assay on CCRF-CEM leukemia. The GI50 with SN12C renal was 0.533 µM; in the assay on RXF 393 renal, 0.763 µM; in the assay on KM12 colon, 0.455 µM; in the assay on HOP-62 NSCLC, 0.604 µM. The TGI with HCT-116 colon came to 4.84 µM; with UACC-257 melanoma, 2.34 µM; in the assay on NCI-H522 lung, 1.97 µM; with MDA-MB-231 breast, 3.72 µM; in the assay on MOLT-4 leukemia, 3.77 µM; in the assay on CCRF-CEM leukemia, 6.78 µM. For the same molecule, the TGI in the assay on SN12C renal is 7.7 µM; with RXF 393 renal it was 2.34 µM; in the assay on KM12 colon, 3.37 µM; in the assay with HOP-62 NSCLC, 3.99 µM.
Consider `S=c1ssnc1-c1cc2ccccc2o1`, for which the GI50 is 9.3 µM in the assay on HCT-116 colon; 6.09 µM in the assay with UACC-257 melanoma; 20.7 µM in the assay on NCI-H522 lung; 13.3 µM in the assay with MDA-MB-231 breast; 3.39 µM in the assay on MOLT-4 leukemia; 3.23 µM in the assay on CCRF-CEM leukemia. The GI50 in the assay with SN12C renal was 13.8 µM; with RXF 393 renal, 7.78 µM; in the assay with KM12 colon, 14.1 µM; in the assay with HOP-62 NSCLC, 17.3 µM. In addition, the TGI was 36.8 µM in the assay with HCT-116 colon; 20.5 µM with UACC-257 melanoma; 45.9 µM in the assay on NCI-H522 lung; 29.4 µM in the assay with MDA-MB-231 breast; more than 100 µM in the assay on MOLT-4 leukemia; more than 100 µM with CCRF-CEM leukemia. In addition, the TGI in the assay with SN12C renal was 32.1 µM; with RXF 393 renal it was 23.3 µM; in the assay with KM12 colon it was 35.1 µM; in the assay with HOP-62 NSCLC, 37.6 µM.
As for `O=C1CCC(c2ccccc2)=NN1c1nc2ccccc2s1`, the TGI in the assay on HCT-116 colon was more than 88.2 µM; in the assay on UACC-257 melanoma it was more than 80.2 µM; in the assay on NCI-H522 lung, 59 µM; with MDA-MB-231 breast, 55.9 µM; in the assay on MOLT-4 leukemia, more than 94.4 µM; with CCRF-CEM leukemia it was 71.8 µM. Besides, the TGI was more than 94.1 µM in the assay with SN12C renal, 34.1 µM with RXF 393 renal, more than 100 µM in the assay with KM12 colon and more than 100 µM with HOP-62 NSCLC.
As for `CCSC[C@@H]1C[C@](O)(c2ccccc2)[C@@H](c2ccccc2)O1`, the GI50 in the assay with HCT-116 colon is 58.6 µM; in the assay with UACC-257 melanoma it was more than 82.3 µM; in the assay on NCI-H522 lung it was 58.4 µM; with MDA-MB-231 breast, more than 95 µM; in the assay with MOLT-4 leukemia, 7.18 µM; in the assay with CCRF-CEM leukemia it was more than 71.5 µM. Further, the GI50 in the assay with SN12C renal was more than 94.5 µM; in the assay with RXF 393 renal it was 76.2 µM; with KM12 colon it was more than 75.8 µM; in the assay on HOP-62 NSCLC, more than 100 µM. Further, the TGI in the assay with HCT-116 colon was more than 100 µM; with UACC-257 melanoma, more than 100 µM; in the assay on NCI-H522 lung, more than 100 µM; in the assay with MDA-MB-231 breast it was more than 100 µM; with MOLT-4 leukemia it was more than 23.7 µM; with CCRF-CEM leukemia it was more than 100 µM. Also, the TGI with SN12C renal, in the assay with RXF 393 renal, in the assay on KM12 colon and in the assay on HOP-62 NSCLC was more than 100 µM each time.
Take `Cc1cc(C)c2nc3c(c(C(O)C4CCCCN4)c2c1)CC/C3=C\c1ccc(Cl)cc1` (centres undefined): the TGI with HCT-116 colon, in the assay with UACC-257 melanoma, with NCI-H522 lung, in the assay on MDA-MB-231 breast, in the assay with MOLT-4 leukemia and in the assay on CCRF-CEM leukemia was more than 100 µM throughout. Also, the TGI in the assay on SN12C renal, with RXF 393 renal, in the assay with KM12 colon and in the assay with HOP-62 NSCLC was more than 100 µM each time.
For `O=c1c(I)c[nH]cc1I`, the GI50 in the assay with HCT-116 colon, in the assay on UACC-257 melanoma, in the assay with NCI-H522 lung, in the assay with MDA-MB-231 breast, in the assay on MOLT-4 leukemia and in the assay on CCRF-CEM leukemia was more than 100 µM in each case. Also, the GI50 in the assay on SN12C renal, in the assay on RXF 393 renal, in the assay with KM12 colon and with HOP-62 NSCLC was more than 100 µM in each case. Besides, the TGI in the assay with HCT-116 colon, in the assay on UACC-257 melanoma, with NCI-H522 lung, in the assay with MDA-MB-231 breast, in the assay on MOLT-4 leukemia and in the assay with CCRF-CEM leukemia was more than 100 µM each time. Besides, the TGI with SN12C renal, with RXF 393 renal, with KM12 colon and in the assay on HOP-62 NSCLC was more than 100 µM each time.
As for `[Br][Pb]([c]1ccccc1)([c]1ccccc1)[c]1ccccc1`, the GI50 in the assay on HCT-116 colon was 0.176 µM; with UACC-257 melanoma, 0.193 µM; with NCI-H522 lung, 0.158 µM; in the assay on MDA-MB-231 breast, 0.208 µM; in the assay on MOLT-4 leukemia it was 0.22 µM; in the assay on CCRF-CEM leukemia it was 0.202 µM. The GI50 in the assay on SN12C renal was 0.228 µM; in the assay on RXF 393 renal, 0.0916 µM; with KM12 colon, 0.356 µM; in the assay on HOP-62 NSCLC it was 0.218 µM. The TGI is 0.352 µM in the assay on HCT-116 colon; 0.43 µM with UACC-257 melanoma; 0.352 µM in the assay with NCI-H522 lung; 0.514 µM with MDA-MB-231 breast; more than 100 µM in the assay with CCRF-CEM leukemia; 0.677 µM in the assay with SN12C renal. The TGI was determined as 0.231 µM in the assay on RXF 393 renal, 1.21 µM in the assay on KM12 colon and 0.505 µM in the assay on HOP-62 NSCLC.
As for `CCN(CC)c1ccc(/C=N/NC(=O)Cc2ccc(Nc3ccnc(C(F)(F)F)c3)cc2)c(O)c1`, the GI50 with HCT-116 colon is 0.46 µM; in the assay on UACC-257 melanoma, 1.82 µM; in the assay with NCI-H522 lung, 1.27 µM; in the assay with MDA-MB-231 breast, 0.842 µM; with MOLT-4 leukemia, 0.37 µM; in the assay with CCRF-CEM leukemia it was 0.256 µM. The GI50 is 1.15 µM with SN12C renal, 1.03 µM in the assay with RXF 393 renal, 0.826 µM with KM12 colon and 0.566 µM in the assay on HOP-62 NSCLC. Moreover, the TGI in the assay with HCT-116 colon was more than 100 µM; with UACC-257 melanoma, more than 29.2 µM; in the assay on NCI-H522 lung, more than 100 µM; in the assay with MDA-MB-231 breast it was more than 100 µM; in the assay with MOLT-4 leukemia, more than 100 µM; in the assay on CCRF-CEM leukemia it was more than 100 µM. Besides, the TGI with SN12C renal was more than 100 µM; in the assay on RXF 393 renal, 98.5 µM; in the assay with KM12 colon it was more than 100 µM; with HOP-62 NSCLC it was more than 100 µM.
Turning to `CC(=O)c1cc2c(N)c(C(=O)Nc3cccc4ccccc34)sc2nc1C`, the GI50 is 2.23 µM with HCT-116 colon; 18 µM in the assay with UACC-257 melanoma; 1.2 µM in the assay on NCI-H522 lung; 3.41 µM in the assay with MDA-MB-231 breast; 2.19 µM in the assay on MOLT-4 leukemia; 2.02 µM in the assay on CCRF-CEM leukemia. For the same molecule, the GI50 was 3.44 µM in the assay with SN12C renal, 0.891 µM in the assay with RXF 393 renal, 1.89 µM in the assay with KM12 colon and 1.67 µM in the assay on HOP-62 NSCLC. Moreover, the TGI with HCT-116 colon, in the assay with UACC-257 melanoma, in the assay on NCI-H522 lung, in the assay with MDA-MB-231 breast, in the assay on MOLT-4 leukemia and with CCRF-CEM leukemia was more than 50 µM each time. Also, the TGI in the assay with SN12C renal was more than 50 µM; in the assay with RXF 393 renal, 3.46 µM; with KM12 colon, more than 50 µM; in the assay on HOP-62 NSCLC it was 27.4 µM.
With `CC(C)=C[C@@H]1C[C@H](C)[C@H]2CC[C@H](C)c3c(O)c(OC4OC(C)C(O)C(O)C4O)c(C)c1c32` (some centres undefined), the GI50 is 10.9 µM with HCT-116 colon; 14.2 µM in the assay with UACC-257 melanoma; 16.1 µM in the assay with NCI-H522 lung; 13.2 µM in the assay with MDA-MB-231 breast; 8.35 µM in the assay on MOLT-4 leukemia; 12.8 µM in the assay on CCRF-CEM leukemia. The GI50 is 11.3 µM with SN12C renal, 11 µM with RXF 393 renal, 2.63 µM with KM12 colon and 19.2 µM in the assay on HOP-62 NSCLC. Moreover, the TGI was 22.9 µM in the assay with HCT-116 colon; 27.3 µM in the assay with UACC-257 melanoma; 29.8 µM with NCI-H522 lung; 26.6 µM with MDA-MB-231 breast; 23.9 µM in the assay on MOLT-4 leukemia; 26.3 µM in the assay on CCRF-CEM leukemia. Further, the TGI came out at 23.5 µM in the assay on SN12C renal, 23.2 µM in the assay with RXF 393 renal, 8.16 µM in the assay with KM12 colon and 34.7 µM in the assay with HOP-62 NSCLC.
